Source: US10221175B2, “Substituted pyrrolo[3,4-e]indolizines, imidazo[1,2-a]pyrrolo[3,4-e]pyridines, pyrrolo[3,4-e][1,2,4]triazolo[1,5-a]pyridines and pyrrolo[3,4-e][1,2,4]triazolo[4,3-a]pyridines as positive allosteric modulators of muscarinic acetylcholine receptor M1” (Vanderbilt University, priority 2015, dated 2019)

Molecular target: T1, mAChR M1 (UniProt P11229)
T1 sequence (P11229 1-460): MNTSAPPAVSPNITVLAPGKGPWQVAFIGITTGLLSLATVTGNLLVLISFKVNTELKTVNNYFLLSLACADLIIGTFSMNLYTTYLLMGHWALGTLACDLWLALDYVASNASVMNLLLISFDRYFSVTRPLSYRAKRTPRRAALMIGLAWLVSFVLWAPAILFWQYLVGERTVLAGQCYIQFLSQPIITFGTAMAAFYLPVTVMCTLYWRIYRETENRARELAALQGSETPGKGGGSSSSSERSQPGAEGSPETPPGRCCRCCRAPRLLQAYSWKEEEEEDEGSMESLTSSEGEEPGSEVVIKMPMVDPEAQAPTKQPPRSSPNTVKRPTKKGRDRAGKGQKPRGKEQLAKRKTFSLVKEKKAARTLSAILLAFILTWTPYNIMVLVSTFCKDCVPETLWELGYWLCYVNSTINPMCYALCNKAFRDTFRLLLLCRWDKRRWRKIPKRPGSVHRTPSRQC
Assay: mAChR M1 cell-based functional assay (calcium mobilization, potentiation of EC20 acetylcholine response)
Conditions: for M1 AChmax (%): maximal response as % of ACh maximum, CHO-K1 cells expressing M1; for EC50: positive allosteric modulator activity, concentration-dependent increase in EC20 acetylcholine response, CHO-K1 cells, >10 μM estimated where no plateau but >20% increase in ACh response
Description: Chinese hamster ovary (CHO-K1) cells stably expressing rat (r)M1 were purchased from the American Type Culture Collection and cultured according to their indicated protocol. CHO cells stably expressing human (h)M2, hM3, and hM5 were described previously (Levey, et al., 1991); hM1 and hM4 cDNAs were purchased from Missouri S&T cDNA Resource; rM4 cDNA was provided by T. I. Bonner (National Institutes of Health, Bethesda, Md.). rM2 and rM3 were cloned from a rat brain cDNA library and sequence verified. hM1, rM2, rM3, hM4, and rM4 cDNAs were used to stably transfect CHO-K1 cells purchased from the American Type Culture Collection using Lipofectamine2000. To make stable rM2, hM2, rM3, hM4, and rM4 cell lines for use in calcium mobilization assays, these cells also were stably transfected with a chimeric G-protein (Gqi5) (provided by B. R. Conklin, University of California, San Francisco) using Lipofectamine 2000. rM1, hM1, rM3, hM3, rM5, and hM5 cells were grown in Ham's F-12 medium containing 10% heat-inactivated fetal bovine serum (FBS), 20 mM HEPES, and 50 μg/mL G418 sulfate. rM2-Gqi5, hM2-Gqi5, and hM4-Gqi5 cells were grown in the same medium also containing 500 μg/mL Hygromycin B. Stable rM4-Gqi5 cells were grown in DMEM containing 10% heat-inactivated FBS, 20 mM HEPES, 400 μg/mL G418 sulfate, and 500 μg/mL Hygromycin B.
For high throughput measurement of agonist-evoked increases in intracellular calcium, CHO-K1 cells stably expressing muscarinic receptors were plated in growth medium lacking G418 and hygromycin at 15,000 cells/20 μL/well in Greiner 384-well black-walled, tissue culture (TC)-treated, clear-bottom plates (VWR). Cells were incubated overnight at 37° C. and 5% CO2. The next day, cells were washed using an ELX 405 (BioTek) with four washes (80 μL) of assay buffer then aspirated to 20 μL. Next, 20 μL of 16 μM Fluo-4/acetoxymethyl ester (Invitrogen, Carlsbad, Calif.) prepared as a 2.3 mM stock in DMSO and mixed in a 1:1 ratio with 10% (w/v) Pluronic F-127 and diluted in assay buffer was added to the wells and the cell plates were incubated for 50 min at 37° C. and 5% CO2. Dye was removed by washing with the ELX 405 (four 80 μL washes of assay buffer) then aspirated to 20 μL. Compound master plates were formatted in an 11 point CRC format (1:3 dilutions) in 100% DMSO with a starting concentration of 10 mM using the BRAVO liquid handler (Agilent). Test compound CRCs were then transferred to daughter plates (240 nL) using the Echo acoustic plate reformatter (Labcyte, Sunnyvale, Calif.) and then diluted into assay buffer (40 μL) to a 2× stock using a Thermo Fisher Combi (Thermo Fisher Scientific, Waltham, Mass.).
Calcium flux was measured using the Functional Drug Screening System (FDSS) 6000 (Hamamatsu Corporation, Tokyo, Japan) as an increase in the fluorescent static ratio. Compounds were applied to cells (20 μL, 2×) using the automated system of the FDSS 6000 at 4 s into the 300 s protocol and the data were collected at 1 Hz. At 144 s into the 300s protocol, 10 μL of an EC20 concentration of the muscarinic receptor agonist acetylcholine was added (5×), followed by the addition of 12 μL an EC8O concentration of acetylcholine at the 230 s time point (5×). Agonist activity was analyzed as a concentration-dependent increase in calcium mobilization upon compound addition. Positive allosteric modulator activity was analyzed as a concentration-dependent increase in the EC20 acetylcholine response. Antagonist activity was analyzed as a concentration-dependent decrease in the EC80 acetylcholine response. Concentration-response curves were generated using a four-parameter logistical equation in XLfit curve fitting software (IDBS, Bridgewater, N.J.) for Excel (Microsoft, Redmond, Wash.) or Prism (GraphPad Software, Inc., San Diego, Calif.). […]

SMILES	M1 AChmax (%)	EC50
Cn1cc2c(-c3cc(F)c(CN4Cc5ccc6nccn6c5C4=O)c(F)c3)cccc2n1 [Compound 32]	72%	1.4 µM
Cn1cc(-c2cc(F)c(CN3Cc4ccc5ncnn5c4C3=O)c(F)c2)cn1 [Compound 31, 7-(2,6-difluoro-4-(1-methyl-1H-pyrazol-4-yl)benzyl)-6,7-dihydro-8H-pyrrolo[3,4-e][1,2,4]triazolo[1,5-a]pyridin-8-one]	85.3%	1.63 µM
CNC(=O)c1ccc(CN2Cc3ccc4nccn4c3C2=O)cc1 [Compound 41]	38%	
O=C1c2c(ccc3nccn23)CN1Cc1ccc(N2CCOCC2)nc1 [Compound 38]	26%	> 10 µM
Cn1cc(-c2ccc(CN3Cc4ccc5ncnn5c4C3=O)c(F)c2)cn1 [Compound 30]	85.9%	0.677 µM
Cn1cc(-c2ccc(CN3Cc4ccc5nccn5c4C3=O)c(F)c2)cn1 [Compound 27]	70.1%	2.26 µM
Cc1cn2c3c(ccc2n1)CN(Cc1c(F)cc(-c2cnn(C)c2)cc1F)C3=O [Compound 29]		> 30 µM
O=C1c2c(ccc3nncn23)CN1Cc1cc(-c2ccc3ncccc3c2)ccc1F [Compound 25]		> 30 µM
O=C1c2c(ccc3nccn23)CN1Cc1ccc(-n2cccn2)cc1F [Compound 40]	26%	> 10 µM
COc1ccc(-c2ccc(F)c(CN3Cc4ccc5nncn5c4C3=O)c2)cn1 [Compound 26]		> 30 µM
O=C1c2c(ccc3nncn23)CN1Cc1c(F)cc(-c2ccc3ncccc3c2)cc1F [Compound 5]	81%	0.743 µM
O=C1c2c(ccc3nccn23)CN1Cc1c(F)cc(-c2ccc3ncccc3c2)cc1F [Compound 39]	28%	
COc1ccc(-c2cc(F)c(CN3Cc4ccc5nncn5c4C3=O)c(F)c2)cn1 [Compound 7]	70%	2.64 µM
Cn1cc2c(-c3cc(F)c(CN4Cc5ccc6nncn6c5C4=O)c(F)c3)cccc2n1 [Compound 1, 7-(2,6-difluoro-4-(2-methyl-2h-indazol-4-yl)benzyl)-6,7-dihydro-8H-pyrrolo[3,4-e][1,2,4]triazolo [4,3-a]pyridin-8-one]	72 (n = 2) %	
O=C1c2c(ccc3nccn23)CN1Cc1ccc(-n2ccnn2)nc1 [Compound 37]	26%	> 10 µM
Cc1ccc(CN2Cc3ccc4nccn4c3C2=O)cn1 [Compound 36]	25%	> 10 µM
Cn1cc(-c2ccc(F)c(CN3Cc4ccc5nncn5c4C3=O)c2)cn1 [Compound 21]	36.8%	> 10 µM
Cn1cc(-c2ccc(CN3Cc4ccc5nncn5c4C3=O)c(F)c2)cn1 [Compound 11]	86%	0.856 µM
O=C1c2c(ccc3nncn23)CN1Cc1c(F)cc(-c2cnc3ccccc3c2)cc1F [Compound 13]	57%	1.82 µM
Cn1cc(-c2cc(F)c(CN3Cc4ccc5nccn5c4C3=O)c(F)c2)cn1 [Compound 28, 2-(2,6-difluoro-4-(1-methyl-1H-pyrazol-4-yl)benzyl)-2,3-dihydro-1H-imidazo[1,2-a]pyrrolo[3,4-e]pyridin-1-one]	67.7%	2.37 µM
O=C1c2c(ccc3nccn23)CN1Cc1ccc(-n2nccn2)cc1 [Compound 42]	35%	> 10 µM
Cn1cc(-c2cc(F)c(CN3Cc4ccc5nncn5c4C3=O)c(F)c2)cn1 [Compound 3]	83%	0.656 µM
Cc1nnc2ccc3c(n12)C(=O)N(Cc1c(F)cc(-c2cnn(C)c2)cc1F)C3 [Compound 14]	79%	1.79 µM
O=C1c2c(ccc3nncn23)CN1Cc1ccc(-c2cnc3ccccc3c2)cc1F [Compound 4]	73%	1.75 µM

Further lines, results first:

M1 AChmax (%)	EC50	SMILES
81%	0.618 µM	Cc1cc(-c2ccc(CN3Cc4ccc5nncn5c4C3=O)c(F)c2)cc2cn(C)nc12 [Compound 17]
83%	1.21 µM	Cc1nnc2ccc3c(n12)C(=O)N(Cc1ccc(-c2ccc4nn(C)cc4c2)cc1F)C3 [Compound 16]
82%	1.06 µM	Cc1ccc(-c2ccc(CN3Cc4ccc5nncn5c4C3=O)c(F)c2)c2cn(C)nc12 [Compound 8]
62%	3.9 µM	Cn1cc2cc(-c3ccc(CN4Cc5ccc6nccn6c5C4=O)c(F)c3)ccc2n1 [Compound 34]
82%	2.14 µM	Cc1ccc(-c2ccc(CN3Cc4ccc5nnc(C)n5c4C3=O)c(F)c2)c2cn(C)nc12 [Compound 18]
81%	1.41 µM	Cc1nnc2ccc3c(n12)C(=O)N(Cc1c(F)cc(-c2cccc4nn(C)cc24)cc1F)C3 [Compound 19]
84%	1.57 µM	O=C1c2c(ccc3nncn23)CN1Cc1ccc(-c2ccc3ncccc3c2)cc1F [Compound 10]
90%	0.502 µM	Cn1cc2cc(-c3ccc(CN4Cc5ccc6nncn6c5C4=O)c(F)c3)ccc2n1 [Compound 9, 7-(2-fluoro-4-(2-methyl-2H-indazol-5-yl)benzyl)-6,7-dihydro-8H-pyrrolo [3,4-e][1,2,4]triazolo[4,3-a]pyridin-8-one]
35.3%	1.31 µM	Cn1cc2cc(-c3ccc(F)c(CN4Cc5ccc6nncn6c5C4=O)c3)ccc2n1 [Compound 22]
78%	0.688 µM	Cn1cc2c(-c3ccc(CN4Cc5ccc6nncn6c5C4=O)c(F)c3)cccc2n1 [Compound 2, 7-(2-fluoro-4-(2-methyl-2H-indazol-4-yl)benzyl)-6,7-dihydro-8H-pyrrolo [3,4-e][1,2,4]triazol[4,3-a]pyridin-8-one]
42%		Cn1cc2cc(-c3cc(F)c(CN4Cc5ccc6nccn6c5C4=O)c(F)c3)ccc2n1 [Compound 35]
56.4%	1.35 µM	Cn1cc2c(-c3ccc(F)c(CN4Cc5ccc6nncn6c5C4=O)c3)cccc2n1 [Compound 23]
84%	2.1 µM	Cc1cc(-c2ccc(CN3Cc4ccc5nnc(C)n5c4C3=O)c(F)c2)cc2cn(C)nc12 [Compound 20]
84%	0.488 µM	Cn1cc2cc(-c3cc(F)c(CN4Cc5ccc6nncn6c5C4=O)c(F)c3)ccc2n1 [Compound 6]
76%	1.24 µM	Cc1nnc2ccc3c(n12)C(=O)N(Cc1c(F)cc(-c2ccc4nn(C)cc4c2)cc1F)C3 [Compound 15]
65%	2.2 µM	Cn1cc2c(-c3ccc(CN4Cc5ccc6nccn6c5C4=O)c(F)c3)cccc2n1 [Compound 33]
